Reference: patent US9188584B2, “Capture agents and related compositions, methods and systems” (CALIFORNIA INSTITUTE OF TECHNOLOGY, priority 2008, dated 2015)
“And” between values parts separate entries of the source, which are not always exact repeats. Equal entries are not always repeated.

Experiments:
[1] = molecular target: hCAII (Homo sapiens, UniProt P00918); experiment: biochemical
Protocol: KD determination by surface plasmon resonance (SPR). […] One flow cell of the biosensor surface (BIACORE CM5) was immobilized with bCAII following standard procedures using 0.25 mg/mL bCAII prepared in 10 mM sodium acetate (pH 5.0) buffer and a 1:1 solution of 0.1 mM NHS and 0.4 mM EDC (Papalia, G. A. et al., 2006). Similarly, a second flow cell was immobilized with hCAII following standard procedures using 0.25 mg/mL hCAII prepared in 10 mM sodium acetate (pH 5.5) buffer (Svedhem, S. et al., 2001). Immobilization levels of ˜4000 RU were achieved using a flow rate of 100 μL/min over 420 s. The remaining two flow cells were left underivatized, to correct for changes in bulk refractive index and to assess nonspecific binding. The running buffer was prepared to contain 10 mM HEPES+150 mM NaCl+0.05% Tween20+3% DMSO, and this buffer was used for all experiments. Prior to the peptide analyte experiment, 8 buffer-alone cycles were completed to establish baseline stabilization. Biligand samples were injected in a concentration series (5 μM to 2 nM) at 100 μL/min flow rate for 120-180 s across the four flow cells. Following background subtraction, the analyte response data was fitted for 1:1 binding affinity using the BiaEvaluation software. […]

[2] = molecular target: T1, bCAII (Bos taurus, UniProt P00921); experiment: KD determination by surface plasmon resonance (SPR), immobilized bCAII; design: species or system bovine; conditions: binding affinity to bCAII by SPR, 1:1 binding fit
T1 construct: The bCAII (C2522), from bovine erythrocytes, lyophilized powder; purchased Sigma-Aldrich C2522; host or cells: bovine erythrocytes
From the text: KD determination by surface plasmon resonance (SPR).

[3] = system: b(h)CAII; experiment: Dot blot selectivity/sensitivity assay in porcine serum; assay type: binding; conditions: 0.1% serum
Protocol: Dot blots are a common method for detecting proteins. […] For a dot blot, the solution containing the protein of interest is simply dotted onto an absorbent membrane material (typically nitrocellulose). The capture agent (typically an antibody) is labeled with biotin molecule, and applied to the same spot. The spot is rinsed, and then horseradish peroxidase (HRP)-labeled streptavidin is added, binding to the biotin that is bound to the protein. Optical methods are typically utilized to detect this binding. For these tests, Biotin-PEG-NovaTag resin (0.48 mmol/g; Novabiochem) was utilized for bulk synthesis of C-terminal biotin-labeled multi-ligands. After resin cleavage, the crude biotinylated multi-ligand was precipitated with ether and then purified to >98% by C18 reversed phase HPLC. For a dot blot assay, the procedure was as follows: b(h)CAII antigens were prepared as 1 mg/mL stocks in PBS (pH 7.4). A dilution series of antigen was applied to a nitrocellulose membrane, typically ranging from 2 μg to 0.5 ng per spot. […] The membrane was then washed with TBS. […] After washing with TBS for 1 h, 1:3000 Streptavidin-HRP (Abcam, Cambridge, Mass.) prepared in 0.5% milk/TBS was added to the membrane and incubated for 1 h. […]

T1 sequence (P00921 whole entry): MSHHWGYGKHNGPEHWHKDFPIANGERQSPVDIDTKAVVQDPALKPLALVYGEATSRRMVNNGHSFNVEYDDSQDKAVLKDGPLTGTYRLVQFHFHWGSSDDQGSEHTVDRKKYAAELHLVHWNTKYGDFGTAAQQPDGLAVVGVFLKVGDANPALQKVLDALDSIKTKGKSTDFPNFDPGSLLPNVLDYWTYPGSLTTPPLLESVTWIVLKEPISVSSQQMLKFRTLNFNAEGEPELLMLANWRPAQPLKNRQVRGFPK

Molecule | Kd [1] [nM] | Kd [2] | reduction of dot blot sensitivity relative to triligand [3] [fold]
CC[C@@H](C)[C@@H](NC(=O)[C@@H](CC(C)C)NC(=O)[C@@H](CC(N)=O)NC(=O)C(N)CCCCn1cc(C[C@@H](NC(C)=O)C(=O)N[C@H](CCCCN)C(=O)N[C@H](Cc2c[nH]c3ccccc23)C(=O)N[C@H](CC(C)C)C(=O)N[C@H](Cc2c[nH]c3ccccc23)C(=O)NCC(=O)N[C@H](CC(C)C)C(=O)N[C@H](Cc2cn(CCCCC(NC(C)=O)C(=O)N[C@H](CCCCN)C(=O)N[C@H](Cc3ccccc3)C(=O)N[C@H](Cc3c[nH]c4ccccc34)C(=O)N[C@H](CC(C)C)C(=O)N[C@H](CCCCN)C(=O)N[C@H](CC(C)C)C(=O)O)nn2)C(=O)N2CCCCC2)nn1)C(=O)N[C@@H](C(=O)N[C@H](Cc1ccccc1)C(=O)N[C@H](CCCNC(=N)N)C(N)=O)C(C)C (stereo partly drawn) [rfviln-Tz2-kwlwGl-Tz1-kfwlkl] | 45 | 60 nM and 64 nM | –
(D-Pra)-kwlwGl-Tz1-kfwlkl | – | – | > 10
